Key:
human SSTR5 = molecular target: T1, human SSTR5 (Homo sapiens, UniProt P35346); assay: Human SSTR5 antagonist activity using intracellular cAMP concentration as indicator (somatostatin 28, Test Example 2); assay type: cell-based; details: 1 μM test compound; somatostatin 28 and 0.3 μM forskolin; CHO (dhfr-) cells expressing human SSTR5; HTRF cAMP; read-out: Inhibition rate (%) with respect to SSTR5 in concentration of 1 μM
T1 construct: expressed in transfected cells
Method: Evaluation of Human SSTR5 Antagonist Activity Using an Intracellular cAMP Concentration as an Indicator
Measurement of the intracellular cAMP concentration was performed using a HTRF cAMP dynamic 2 kit (manufactured by Cisbio). A test compound which was diluted with an assay buffer (5 mM HEPES (pH 7.5) (manufactured by Invitrogen Corp.), 0.1% fatty-acid free BSA (manufactured by Sigma-Aldrich, Inc.), HBSS (manufactured by Invitrogen Corp.) containing 500 μM IBMX (manufactured by Wako Pure Chemical Industries, Ltd) was added by 2 μL/well to a 384 well white plate (manufactured by Greiner) such that a final concentration become 1 μM. A frozen stock, which was stably expressed dihydrofolate reductase-deficient CHO (dhfr-) cells in which human SSTR5 gene (Accession No. NM001053) was melted in a thermostatic chamber at 37° C., and it was suspended on a medium of subculture (medium prepared from MEM alpha (manufactured by Wako Pure Chemical Industries, Ltd.), 10% dialyzed serum (manufacture by Gemini Co., Ltd.) and 50 μg/mL gentamicin (manufactured by Invitrogen Corp.). After centrifuging the cell suspension, the cell suspension was resuspended using the assay buffer, and the resultant was added to each well by 2 μL/well to be 4000 cells/well. After a test compound and cells were incubated for 15 minutes. An assay buffer which contains 0.1 nM of somatostatin 28 (manufactured by Toray Research Center) and 0.3 μM of forskolin (manufactured by Wako Pure Chemical Industries, Ltd) as a final concentration was added by […], and incubation was performed for 30 minutes at room temperature. Each of cAMP-d2 and anti-cAMP-cryptate was added by 3 μL/well, it was allowed to stand for 60 minutes at room temperature, and FRET (Fluorescence resonance energy transfer) intensity was measured using Multi-label reader Envision (manufactured by Perkin Elmer Inc.). Using the calibration curve prepared from the FRET intensity of well groups in which cAMP as arbitrary concentration was added to an assay buffer, FRET intensity of wells in which a test compound group was added was converted into cAMP concentration. Inhibitory activity of compounds was calculated using the following equation. Inhibitory activity (%)=(C−B)/(A−B)×100 A: cAMP concentration calculated from wells in which 0.3 μM of forskolin is added B: cAMP concentration calculated from wells in which 0.3 μM of forskolin and 1 nM of somatostatin 28 are added C: cAMP concentration wells in which 0.3 μM of forskolin, 1 nM of somatostatin 28 and 1 μM of test compound are added
Inhibition rates (%) are described in Table 3 with respect to SSTR5 in concentration of 1 μM of a test compound.

C57BL/6J mice = assay: Evaluation of glucose lowering effect (oral glucose load in high fat diet fed mice, Test Example 3); assay type: in vivo; details: 3 mg/kg oral, male C57BL/6J mice on HFD, Mean ± SD, n = 6
Method: Evaluation of Glucose Lowering Effect
8-week-old male C57BL/6J mice were purchased from CLEA Japan, Inc. After feeding high fat diet (HFD; D12492, Research Diets, Inc.) for a week, weight of mice is measured a day before the experiment, and the mice were separated in groups based on the weight. On the day of experiment, vehicle (0.5% methyl cellulose solution) or test drug (0.5% methyl cellulose suspension) were orally administered 1 hour after fasting was started and glucose load was given orally 9 hours after fasting was started. Just before the glucose load, Blood Glucose (BG) was measured by drawing blood from the tail (pre), and BG was measured again from the tail 10 minutes, 30 minutes, 60 minutes and 120 minutes after the glucose load. All values were indicated with Mean±Standard Deviation (SD), and in the statistical analysis, Williams test was used for the case of equal variance and Shirley-Williams test was used for non-equal variance in the comparison of the vehicle group and test drug group.

hERG = hERG (Homo sapiens, UniProt Q12809); assay: hERG activity measurement by IonWorks Quattro (Test Example 4); assay type: cell-based; details: 5 minutes exposure, CHO cells stably expressing hERG, IonWorks Quattro PPC mode
Method: hERG Activity Measurement by IonWorks Quattro
A cell strain CYL3038 having hERG stably expressed in CHO cells was purchased from Millipore LIMITED. A subculture of CYL3038 was prepared using Ham's F-12 medium containing 10% FBS and 500 μg/mL Geneticin, under the presence of 5% CO2 at 32° C. hERG current inhibition was measured by PPC mode of IonWorks Quattro (Molecular Devices, Inc.). As an extracellular fluid, PBS (+) was used. As an intracellular fluid, 20 mM HEPES buffer (pH 7.3) containing 140 mM KCl, 2 mM MgCl2 and 1 mM EGTA was used, and the cell was perforated by amphotericin. As the voltage protocol, holding potential was set to −80 mV, prepulsevoltage was set to 40 mV (2 seconds) and test pulsevoltage was set to −50 mV (2 seconds). Current values before and after addition of compound are respectively recorded as pre-compound hERG current and post-compound hERG current.

T1 sequence (P35346 whole entry): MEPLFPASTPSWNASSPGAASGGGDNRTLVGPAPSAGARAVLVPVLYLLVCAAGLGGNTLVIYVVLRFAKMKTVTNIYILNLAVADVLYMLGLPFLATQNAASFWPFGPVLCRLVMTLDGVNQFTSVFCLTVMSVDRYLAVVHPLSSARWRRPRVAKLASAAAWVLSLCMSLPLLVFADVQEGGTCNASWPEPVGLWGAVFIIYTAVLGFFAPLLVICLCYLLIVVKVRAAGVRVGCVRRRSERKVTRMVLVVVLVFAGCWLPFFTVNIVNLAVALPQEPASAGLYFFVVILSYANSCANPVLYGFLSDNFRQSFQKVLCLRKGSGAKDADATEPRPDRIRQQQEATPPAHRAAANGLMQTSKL
Sequence of hERG (Q12809 whole entry): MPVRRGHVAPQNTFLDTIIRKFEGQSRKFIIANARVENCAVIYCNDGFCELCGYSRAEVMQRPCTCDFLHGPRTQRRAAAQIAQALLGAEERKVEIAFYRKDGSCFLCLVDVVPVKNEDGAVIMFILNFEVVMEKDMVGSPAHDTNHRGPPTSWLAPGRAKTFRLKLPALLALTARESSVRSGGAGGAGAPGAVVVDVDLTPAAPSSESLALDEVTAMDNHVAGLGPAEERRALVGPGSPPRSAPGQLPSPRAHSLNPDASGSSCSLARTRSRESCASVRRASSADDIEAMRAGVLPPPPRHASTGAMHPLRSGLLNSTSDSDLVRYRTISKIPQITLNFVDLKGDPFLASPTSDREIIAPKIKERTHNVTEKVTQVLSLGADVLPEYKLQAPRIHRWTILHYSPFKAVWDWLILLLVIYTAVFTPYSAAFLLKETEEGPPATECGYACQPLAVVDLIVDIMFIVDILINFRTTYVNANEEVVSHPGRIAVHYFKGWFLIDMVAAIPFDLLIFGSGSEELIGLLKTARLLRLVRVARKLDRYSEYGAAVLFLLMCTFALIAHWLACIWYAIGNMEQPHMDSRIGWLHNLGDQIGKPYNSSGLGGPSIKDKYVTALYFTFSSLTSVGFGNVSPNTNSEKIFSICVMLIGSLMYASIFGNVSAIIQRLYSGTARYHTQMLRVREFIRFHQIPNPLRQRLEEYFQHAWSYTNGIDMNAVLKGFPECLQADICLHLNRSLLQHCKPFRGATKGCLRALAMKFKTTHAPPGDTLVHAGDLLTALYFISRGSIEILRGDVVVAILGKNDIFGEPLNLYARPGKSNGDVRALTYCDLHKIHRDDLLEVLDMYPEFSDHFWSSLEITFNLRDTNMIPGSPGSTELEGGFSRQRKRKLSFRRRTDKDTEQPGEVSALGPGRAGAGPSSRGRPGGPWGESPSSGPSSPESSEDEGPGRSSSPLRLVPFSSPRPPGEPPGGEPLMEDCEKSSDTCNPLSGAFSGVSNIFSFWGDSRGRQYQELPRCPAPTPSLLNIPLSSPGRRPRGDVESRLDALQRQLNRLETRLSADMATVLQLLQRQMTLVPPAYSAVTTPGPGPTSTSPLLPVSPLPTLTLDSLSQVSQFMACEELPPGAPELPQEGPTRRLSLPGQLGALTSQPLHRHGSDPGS

Row | Compound | inhibition at 1 µM (human SSTR5) [%] | further results
1 | COc1c(CN2CC3(CC(N4CCC(C)(C(=O)O)CC4)=NO3)C2)cc(C2CC2)c(-c2ccc(F)cc2F)c1Cl [Example 258, 1-(2-((2-Chloro-6-cyclopropyl-2′,4′-difluoro-3-methoxybiphenyl-4-yl)methyl)-5-oxa-2,6-diazaspiro[3.4]oct-6-en-7-yl)-4-methylpiperidine-4-carboxylic acid] | 124 | –
2 | CCOc1c(CN2CC3(CC(N4CCC(C(=O)O)CC4)=NO3)C2)cc(C2CC2)c(-c2ccc(F)cc2)c1F [Example 261, 1-(2-((6-Cyclopropyl-3-ethoxy-2,4′-difluorobiphenyl-4-yl)methyl)-5-oxa-2,6-diazaspiro[3.4]oct-6-en-7-yl)piperidine-4-carboxylic acid] | 92 | –
3 | CC(C)Oc1cc(C2CC2)c(C2CC2)cc1CN1CC2(CC(N3CCC(C)(C(=O)O)CC3)=NO2)C1 [Example 248, 1-(2-(4,5-Dicyclopropyl-2-isopropoxybenzyl)-5-oxa-2,6-diazaspiro[3.4]oct-6-en-7-yl)-4-methylpiperidine-4-carboxylic acid] | 102 | –
4 | CCOc1cc(C2CC2)c(C2CC2)cc1CN1CC2(CC(N3CCC(C)(C(=O)O)CC3)=NO2)C1 [Example 250, 1-(2-(4,5-Dicyclopropyl-2-ethoxybenzyl)-5-oxa-2,6-diazaspiro[3.4]oct-6-en-7-yl)-4-methylpiperidine-4-carboxylic acid] | 98 | –
5 | CCOc1c(CN2CC3(CC(N4CCC(C)(C(=O)O)CC4)=NO3)C2)cc(C2CC2)c(-c2ccc(F)cc2)c1Cl [Example 239, 1-(2-((2-Chloro-6-cyclopropyl-3-ethoxy-4′-fluorobiphenyl-4-yl)methyl)-5-oxa-2,6-diazaspiro[3.4]oct-6-en-7-yl)-4-methylpiperidine-4-carboxylic acid] | 94 | –
6 | COc1c(CN2CC3(CC(N4CCC(C)(C(=O)O)CC4)=NO3)C2)cc(C2CC2)c(-c2ccc(F)cc2)c1Cl [Example 238, 1-(2-((2-Chloro-6-cyclopropyl-4′-fluoro-3-methoxybiphenyl-4-yl)methyl)-5-oxa-2,6-diazaspiro[3.4]oct-6-en-7-yl)-4-methylpiperidine-4-carboxylic acid] | 99 | Blood Glucose (BG) 10 min (C57BL/6J mice; 10 minutes after glucose load): 261 ± 42; Blood Glucose (BG) 30 min (C57BL/6J mice; 30 minutes after glucose load): 350 ± 49; Blood Glucose (BG) 60 min (C57BL/6J mice; 60 minutes after glucose load): 345 ± 38; Blood Glucose (BG) 120 min (C57BL/6J mice; 120 minutes after glucose load): 188 ± 22; AUCpre-120 min (C57BL/6J mice; blood glucose AUC pre to 120 min after glucose load): 576 ± 52; Blood Glucose (BG) pre (C57BL/6J mice; just before glucose load): 148 ± 19; % hERG inhibition (10 μM) (hERG): 10%
7 | COc1c(CN2CC3(CC(N4CCC(C)(C(=O)O)CC4)=NO3)C2)cc(C2CC2)c(-c2ccc(F)cc2F)c1F [Example 259, 1-(2-((6-Cyclopropyl-2,2′,4′-trifluoro-3-methoxybiphenyl-4-yl)methyl)-5-oxa-2,6-diazaspiro[3.4]oct-6-en-7-yl)-4-methylpiperidine-4-carboxylic acid] | 90 | –
8 | CC(C)Oc1c(CN2CC3(CC(N4CCC(C)(C(=O)O)CC4)=NO3)C2)cc(C2CC2)c(C2CC2)c1F [Example 256, 1-(2-(4,5-Dicyclopropyl-3-fluoro-2-isopropoxybenzyl)-5-oxa-2,6-diazaspiro[3.4]oct-6-en-7-yl)-4-methylpiperidine-4-carboxylic acid] | 121 | –
9 | COc1c(CN2CC3(CC(N4CCC(C)(C(=O)O)CC4)=NO3)C2)cc(C2CC2)c(-c2ccc(F)cc2)c1F [Example 265, 1-(2-((6-Cyclopropyl-2,4′-difluoro-3-methoxybiphenyl-4-yl)methyl)-5-oxa-2,6-diazaspiro[3.4]oct-6-en-7-yl)-4-methylpiperidine-4-carboxylic acid] | 92 | % hERG inhibition (10 μM) (hERG): 18%

Source: patent publication US9605000B2, “Spiro azetidine isoxazole derivatives and their use as SSTR antagonists” (Takeda Pharmaceutical Company Limited, priority 2013, dated 2017)
